We go through 24 compounds from patent US7834023B2 (Portola Pharmaceuticals, Inc., priority 2006, dated 2010).

The structures appear in SMILES notation. Some results are limits rather than exact numbers.

The assay deals with T1, P2Y12 receptor (Homo sapiens, UniProt Q9H244).
T1 construct: endogenous in cells; host or cells: human platelets (outdated from blood banks or fresh), apyrase-washed, whole
T1 sequence (Q9H244 whole entry): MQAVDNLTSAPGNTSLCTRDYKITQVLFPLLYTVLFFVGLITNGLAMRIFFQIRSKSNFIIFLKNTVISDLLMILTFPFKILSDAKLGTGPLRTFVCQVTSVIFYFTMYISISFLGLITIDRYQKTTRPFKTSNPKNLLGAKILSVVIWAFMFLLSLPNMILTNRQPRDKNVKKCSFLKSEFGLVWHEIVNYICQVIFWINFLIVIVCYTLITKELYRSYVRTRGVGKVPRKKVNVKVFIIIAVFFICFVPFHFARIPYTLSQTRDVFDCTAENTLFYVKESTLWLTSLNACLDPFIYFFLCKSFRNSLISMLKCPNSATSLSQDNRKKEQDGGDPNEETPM
Put plainly: platelet ADP receptor binding assay (ARB): inhibition of [3H]2-MeS-ADP binding to platelets. To be noted: [3H]2-MeS-ADP binding to apyrase-washed human platelets. As for the experimental part:
1. The Ability of Candidate Molecules to Inhibit the Binding of [^3H]2-MeS-ADP to the […] Receptor on Platelets was Determined Using a Radioligand Binding Assay.
Utilizing this assay the potency of inhibition of such compounds with respect to [^3H]2-MeS-ADP binding to whole platelets is determined. Under the conditions described in II (3) below, the binding of [^3H]2-MeS-ADP is solely due to the interaction of this ligand with the P2Y12 receptor, in that all the specific binding measured in this assay is competable with a P2Y12 antagonist (i.e., the specific binding is reduced to background levels by competition with an excess of P2Y12 antagonist, with no competition of binding when a P2Y1 antagonist is pre-incubated with the platelet preparation). [^3H]2-MeS-ADP binding experiments are routinely performed with outdated human platelets collected by standard procedures at hospital blood banks. Apyrase-washed outdated platelets are prepared as follows (all steps at room temperature, if not indicated otherwise):
Outdated platelet suspensions are diluted with 1 volume of CGS and platelets pelleted by centrifugation at 1900×g for 45 minutes. Platelet pellets are resuspended at 3-6×10^9 platelets/ml in CGS containing 1 U/ml apyrase (grade V, Sigma, St. Louis, Mo.) and incubated for 15 minutes at 37° C. After centrifugation at 730×g for 20 minutes, pellets are resuspended in Hepes-Tyrode's buffer containing 0.1% BSA (Sigma, St. Louis, Mo.) at a concentration of 6.66×10^8 platelets/ml. Binding experiments are performed after >45 minutes resting of the platelets.
Alternatively, binding experiments are performed with fresh human platelets prepared as described in section I (Inhibition of ADP-Mediated Platelet Aggregation in vitro), except that platelets are resuspended in Hepes-Tyrode's buffer containing 0.1% BSA (Sigma, St. Louis, Mo.) at a concentration of 6.66×10^8 platelets/mil. Very similar results are obtained with fresh and outdated platelets.
A platelet ADP receptor binding assay (ARB) using the tritiated potent agonist ligand [^3H]2-MeS-ADP (Jantzen, H. M. et al. (1999) Thromb. Hemost. 81:111-117) has been adapted to the 96-well microtiter format. In an assay volume of 0.2 ml Hepes-Tyrode's buffer with 0.1% BSA and 0.6% DMSO, 1×10^8 apyrase-washed platelets are preincubated in 96-well flat bottom microtiter plates for 5 minutes with serial dilutions of test compounds before addition of 1 nM [^3H]2-MeS-ADP ([^3H]2-methylthioadenosine-5′-diphosphate, ammonium salt; specific activity 20-50 Ci/mmole, obtained by custom synthesis from Amersham Life Science, Inc., Arlington Heights, Ill., or NEN Life Science Products, Boston, Mass.). Total binding is determined in the absence of test compounds. Samples for nonspecific binding may contain 10 μM unlabelled 2-MeS-ADP (RBI, Natick, Mass.). After incubation for 15 minutes at room temperature, unbound radioligand is separated by rapid filtration and two washes with cold (4-8° C.) Binding Wash Buffer (10 mM Hepes pH 7.4, 138 mM NaCl) using a 96-well cell harvester (Minidisc 96, Skatron Instruments, Sterling, Va.) and 8×12 GF/C glassfiber filtermats (Printed Filtermat A, for 1450 Microbeta, Wallac Inc., Gaithersburg, Md.). The platelet-bound radioactivity on the filtermats is determined in a scintillation counter (Microbeta 1450, Wallac Inc., Gaithersburg, Md.). Specific binding is determined by subtraction of non-specific binding from total binding, and specific binding in the presence of test compounds is expressed as % of specific binding in the absence of test compound dilutions. IC50s were derived by non-linear regression analysis.
For the compound `CNc1cc2c(cc1F)C(=O)N(c1ccc(CC(=O)NC(C(=O)OC)c3ccc(Cl)s3)cc1)CO2` (stereo not drawn) [Compound 118, methyl 2-(5-chlorothiophen-2-yl)-2-(2-(4-(6-fluoro-7-(methylamino)-4-oxo-2H-benzo[e][1,3]oxazin-3(4H)-yl)phenyl)acetamido)acetate], the IC50 lay within 50 to 500 nM. With `O=C(NC(C(=O)O)c1ccc(Cl)s1)c1ccc(-n2cc(Br)c3ccccc3c2=O)cc1` (stereo not drawn) [Compound 102, 2-(4-(4-bromo-1-oxoisoquinolin-2(1H)-yl)benzamido)-2-(5-chlorothiophen-2-yl)acetic acid] the figure was more than 500 nM; with `CNc1cc2c(cc1F)C(=O)N(c1ccc(C(=O)N[C@H](C(=O)O)c3ccccc3)cc1)CO2` [Compound 65, (S)-2-(4-(6-fluoro-7-(methylamino)-4-oxo-2H-benzo[e][1,3]oxazin-3(4H)-yl)benzamido)-2-phenylacetic acid], 50 to 500 nM; with `CNc1cc2[nH]c(=O)n(-c3ccc(C(=O)NC(Cc4cccs4)C(=O)O)cc3)c(=O)c2cc1F` (stereo not drawn) [Compound 9, 2-(4-(6-fluoro-7-(methylamino)-2,4-dioxo-1,2-dihydroquinazolin-3(4H)-yl)benzamido)-3-(thiophen-2-yl)propanoic acid], more than 500 nM.

Consider `CNc1cc2[nH]c(=O)n(-c3ccc(C(=O)NC(C(=O)O)c4cccc(Cl)c4)cc3)c(=O)c2cc1F` (stereo not drawn) [Compound 15, 2-(3-chlorophenyl)-2-(4-(6-fluoro-7-(methylamino)-2,4-dioxo-1,2-dihydroquinazolin-3(4H)-yl)benzamido)acetic acid], for which the IC50 lay within 50 to 500 nM. With `CNc1cc2[nH]c(=O)n(-c3ccc(C(=O)NC(c4cc(Cl)cc(Cl)c4)c4nnn[nH]4)cc3)c(=O)c2cc1F` (stereo not drawn) [Compound 30, N-((3,5-dichlorophenyl)(1H-tetrazol-5-yl)methyl)-4-(6-fluoro-7-(methylamino)-2,4-dioxo-1,2-dihydroquinazolin-3(4H)-yl)benzamide] the figure was more than 500 nM; with `CNc1cc2[nH]c(=O)n(-c3ccc(C(=O)NC(CO)c4ccc(Cl)s4)cc3)c(=O)c2cc1F` (stereo not drawn) [Compound 36], 50 to 500 nM; with `CNc1cc2[nH]c(=O)n(-c3ccc(C(=O)NC(C(=O)OC)c4ccc(Cl)s4)cc3)c(=O)c2cc1F` (stereo not drawn) [Compound 18], more than 500 nM. Under `O=C(NC(C(=O)O)c1ccc(Cl)s1)c1ccc(N2COc3ccccc3C2=O)cc1` (stereo not drawn) [Compound 83, 2-(5-chlorothiophen-2-yl)-2-(4-(4-oxo-2H-benzo[e][31]oxazin-3(4H)-yl)benzamido)acetic acid] stands more than 500 nM; under `CC(C)Oc1ccc2[nH]c(=O)n(-c3ccc(C(=O)NC(C(=O)O)c4ccc(Cl)s4)cc3)c(=O)c2c1` (stereo not drawn) [Compound 38, 2-(5-chlorothiophen-2-yl)-2-(4-(6-isopropoxy-2,4-dioxo-1,2-dihydroquinazolin-3(4H)-yl)benzamido)acetic acid], more than 500 nM; under `CNc1cc2[nH]c(=O)n(-c3ccc(C(=O)NCc4ccc(Cl)s4)cc3)c(=O)c2cc1F` [Compound 4, N-((5-chlorothiophen-2-yl)methyl)-4-(6-fluoro-7-(methylamino)-2,4-dioxo-1,2-dihydroquinazolin-3(4H)-yl)benzamide], 50 to 500 nM. For `CNc1cc2[nH]c(=O)n(-c3ccc(C(=O)NC(c4ccc(Cl)cc4)c4nnn[nH]4)cc3)c(=O)c2cc1F` (stereo not drawn) [Compound 12, N-((4-chlorophenyl)(1H-tetrazol-5-yl)methyl)-4-(6-fluoro-7-(methylamino)-2,4-dioxo-1,2-dihydroquinazolin-3(4H)-yl)benzamide], the IC50 was more than 500 nM. Under `CNc1cc2[nH]c(=O)n(-c3ccc(C(=O)NC(c4cccc(OC)c4)c4nnn[nH]4)cc3)c(=O)c2cc1F` (stereo not drawn) [Compound 23, 4-(6-fluoro-7-(methylamino)-2,4-dioxo-1,2-dihydroquinazolin-3(4H)-yl)-N-((3-methoxyphenyl)(1H-tetrazol-5-yl)methyl)benzamide] stands more than 500 nM; under `CCc1ccc2c(c1)CCN(c1ccc(C(=O)NC(C(=O)O)c3ccc(Cl)s3)cc1)C2=O` (stereo not drawn) [Compound 119, 2-(5-chlorothiophen-2-yl)-2-(4-(6-ethyl-1-oxo-3,4-dihydroisoquinolin-2(1H)-yl)benzamido)acetic acid], more than 500 nM; under `CNc1cc2[nH]c(=O)n(-c3ccc(C(=O)NC(C(=O)O)c4ccc(Cl)s4)s3)c(=O)c2cc1F` (stereo not drawn) [Compound 112, 2-(5-chlorothiophen-2-yl)-2-(5-(6-fluoro-7-(methylamino)-2,4-dioxo-1,2-dihydroquinazolin-3(4H)-yl)thiophene-2-carboxamido)acetic acid], 50 to 500 nM. As to `CCc1ccc2c(c1)OCN(c1ccc(C(=O)NC(C(=O)O)c3ccc(Cl)s3)cc1)C2=O` (stereo not drawn) [Compound 78, 2-(5-chlorothiophen-2-yl)-2-(4-(7-ethyl-4-oxo-2H-benzo[e][1,3]oxazin-3(4H)-yl)benzamido)acetic acid], the IC50 fell in the range of 50 to 500 nM.

`CCc1ccc2c(c1)C(=O)N(c1ccc(C(=O)NC(C(=O)O)c3ccc(Cl)s3)cc1)CO2` (stereo not drawn) [Compound 72, 2-(5-chlorothiophen-2-yl)-2-(4-(6-ethyl-4-oxo-2H-benzo[e][1,3]oxazin-3(4H)-yl)benzamido)acetic acid] showed an IC50 of more than 500 nM.

`CNc1ccc2c(=O)n(-c3ccc(C(=O)NC(C(=O)O)c4ccc(Cl)s4)cc3)c(=O)[nH]c2c1` (stereo not drawn) [Compound 20, 2-(5-chlorothiophen-2-yl)-2-(4-(7-(methylamino)-2,4-dioxo-1,2-dihydroquinazolin-3(4H)-yl)benzamido)acetic acid] yielded an IC50 of 50 to 500 nM. With `CNc1cc2c(cc1F)C(=O)N(c1ccc(C(=O)NC(C(=O)O)c3cccs3)cc1)CO2` (stereo not drawn) [Compound 63, 2-(4-(6-fluoro-7-(methylamino)-4-oxo-2H-benzo[e][1,3]oxazin-3(4H)-yl)benzamido)-2-(thiophen-2-yl)acetic acid] the figure was more than 500 nM. With `N#Cc1ccc2c(=O)n(-c3ccc(C(=O)NC(C(=O)O)c4ccc(Cl)s4)cc3)ccc2c1` (stereo not drawn) [Compound 98, 2-(5-chlorothiophen-2-yl)-2-(4-(6-cyano-1-oxoisoquinolin-2(1H)-yl)benzamido) acetic acid] the figure was more than 500 nM. Compound `COc1cc2ccn(-c3ccc(C(=O)NC(C(=O)O)c4ccc(Cl)s4)cc3)c(=O)c2cc1F` (stereo not drawn) [Compound 92, 2-(5-chlorothiophen-2-yl)-2-(4-(7-fluoro-6-methoxy-1-oxoisoquinolin-2(1H)-yl)benzamido)acetic acid] came in with an IC50 of more than 500 nM. Under `COC(=O)C(NC(=O)c1ccc(N2COc3ccc(C)cc3C2=O)cc1)c1ccc(Cl)s1` (stereo not drawn) [Compound 76, methyl 2-(5-chlorothiophen-2-yl)-2-(4-(6-methyl-4-oxo-2H-benzo[e][1,3]oxazin-3(4H)-yl)benzamido)acetate] stands more than 500 nM; under `CNc1cc2c(cc1F)C(=O)N(c1ccc(C(=O)NC(c3ccc(Cl)s3)c3nnnn3C)cc1)CO2` (stereo not drawn) [Compound 73, N-((5-chlorothiophen-2-yl)(1-methyl-1H-tetrazol-5-yl)methyl)-4-(6-fluoro-7-(methylamino)-4-oxo-2H-benzo[e][1,3]oxazin-3(4H)-yl)benzamide], 50 to 500 nM. With `CNc1cc2[nH]c(=O)n(-c3ccc(C(=O)NC(C(=O)O)c4ccc(Cl)cc4)cc3)c(=O)c2cc1F` (stereo not drawn) [Compound 14, 2-(4-chlorophenyl)-2-(4-(6-fluoro-7-(methylamino)-2,4-dioxo-1,2-dihydroquinazolin-3(4H)-yl)benzamido)acetic acid] the figure was more than 500 nM.

The IC50 is the concentration needed to halve the response being measured. Read a high IC50 as a need for much substance.
